Consider one compound from patent US9975860B2, “Anti-angiogenic compounds” (UNIVERSITY COLLEGE DUBLIN—NATIONAL UNIVERSITY OF IRELAND, …, priority 2014, dated 2018).

For assay [1], the system named is MMS19. Kind of assay: qPCR DNA repair gene expression in OE33R: MMS19. The format is cell-based, human. The following applies: 10 μM, 24 hours. The procedure:
(§1) OE33P radiosensitive oesophageal adenocarcinoma cells and OE33R radioresistant oesophageal adenocarcinoma cells were used to test the effects of the compound 4 on DNA repair gene expression. Cells were maintained in RPMI media supplemented with 10% foetal calf serum, penicillin (100 U/ml) and streptomycin (100 μg/ml). A total of 300,000 cells, in 2 ml media, were seeded per well in 6 well plates and left to incubate for 24 hours. The media was replaced with solutions containing 10 μM of compound 4 or the equivalent volume of DMSO vehicle control. After 24 hours of treatment, RNA was extracted from the cells and converted to cDNA. qPCR was then conducted and expression of MMS19, SMUG1 PARP1 and MLH1 was quantified, […]

Assay [2] deals with OE33R radioresistant oesophageal adenocarcinoma cells. Kind of assay: Seahorse OCR (oxidative phosphorylation) in OE33R. The format is cell-based, human. The following applies: 10 μM, 24 hours, p<0.05. The procedure: (§2) OE33P radiosensitive and OE33R radioresistant oesophageal adenocarcinoma cells were used to test the effects of the compound 4 on oxidative phosphorylation. Cells were maintained in RPMI media supplemented with 10% foetal calf serum, penicillin (100 U/ml) and streptomycin (100 μg/ml). A total of 11,000 OE33P cells and 13,000 OE33R cells, in 100 μl media, were seeded per well in 24 well plates and left to incubate for 24 hours, with an additional 150 μl media added after 5 hours. The media was replaced with solutions containing 10 μM of compound 4 or the equivalent volume of DMSO vehicle control. After 24 hours of treatment, media was replaced with modified DMEM supplemented with 0.5 mM glucose. Rates of oxidative phosphorylation were determined using Seahorse Biosciences metabolism technology. The media was disposed and the cells washed with PBS. The cells were fixed with 1% glutaraldehyde for 15 minutes and then stained with crystal violet for 30 minutes. The plates were blotted and dried overnight. The cells were resuspended with 1% TritonX-100 and shaken for 15 minutes. The absorbance was read on a spectrophotometer at 595 nm Rates of oxidative phosphorylation were then normalised to cell number.

The test system of assay [3] is HT29-LUC radioresistant colorectal adenocarcinoma cells. Nature of the assay: Seahorse ECAR (glycolysis) in HT29-LUC. The class given is cell-based, human. The following applies: 10 μM, 24 hours. The procedure: HT29-LUC radioresistant colorectal adenocarcinoma cells were used to test the effects of compound 4 on glycolysis. Cells were maintained in McCoy's 5A media supplemented with 10% foetal calf serum. A total of 20,000 cells, in 100 μl media, were seeded per well in 24 well plates and left to incubate for 24 hours, with an additional 150 μl media added after 5 hours. The media was replaced with solutions containing 10 μM of compound 4 or the equivalent volume of DMSO vehicle control. After 24 hours of treatment, media was replaced with modified DMEM supplemented with 0.5 mM glucose. Rates of glycolysis were determined using Seahorse Biosciences metabolism technology. The media was disposed and the cells washed with PBS. The cells were fixed with 1% glutaraldehyde for 15 minutes and then stained with crystal violet for 30 minutes. The plates were blotted and dried overnight. The cells were resuspended with 1% TritonX-100 and shaken for 15 minutes. The absorbance was read on a spectrophotometer at 595 nm Rates of glycolysis were then normalised to cell number.

Assay [4] deals with MLH1. Kind of assay: qPCR DNA repair gene expression in OE33P: MLH1. The format is cell-based, human. The following applies: 10 μM, 24 hours, p<0.05. The procedure: as §1
(In qPCR the cycle at which signal appears reflects the starting amount.)

Assay [5] concerns OE33P radiosensitive oesophageal adenocarcinoma cells. Nature of the assay: Seahorse OCR (oxidative phosphorylation) in OE33P. The format is cell-based, human. The following applies: 10 μM, 24 hours. The procedure: as §2
Assay [6] has as its system SMUG1. Nature of the assay: qPCR DNA repair gene expression in OE33R: SMUG1. The format is cell-based, human. The following applies: 10 μM, 24 hours. The procedure:
as §1

Assay [7] concerns OE33P radiosensitive oesophageal adenocarcinoma cells. Nature of the assay: Seahorse ECAR (glycolysis) in OE33P. The format is cell-based, human. The following applies: 10 μM, 24 hours. How it is done: as §2, with “radiosensitive oesophageal adenocarcinoma cells” for “radiosensitive”, “on glycolysis.” for “on oxidative phosphorylation.”, “11,000” for “11,000 OE33P”, “cells (OE33P) or” for “cells and”, “13,000 cells (OE33R),” for “13,000 OE33R cells,”, “of glycolysis” for “of oxidative phosphorylation”

Assay [8] relates to MLH1. Kind of assay: qPCR DNA repair gene expression in OE33R: MLH1. The following applies: 10 μM, 24 hours. The format is cell-based, human. The procedure:
as §1

Assay [9] concerns OE33R radioresistant oesophageal adenocarcinoma cells. Kind of assay: Seahorse ECAR (glycolysis) in OE33R. The format is cell-based, human. The following applies: 10 μM, 24 hours. The procedure: as §2, with “radiosensitive oesophageal adenocarcinoma cells” for “radiosensitive”, “on glycolysis.” for “on oxidative phosphorylation.”, “11,000” for “11,000 OE33P”, “cells (OE33P) or” for “cells and”, “13,000 cells (OE33R),” for “13,000 OE33R cells,”, “of glycolysis” for “of oxidative phosphorylation”

Assay [10] has as its system mouse aortic ring. Nature of the assay: Ex vivo mouse aortic ring assay (sprout formation). The following applies: 10 μM; C57/BL6 mouse aortic rings in matrigel; vs 0.1% DMSO; hydrochloride. The procedure:
Aortae from sex matched C57/BL6 littermates were cleansed of adipose tissue, cut into 2 mm rings and immersed in matrigel. Aortic rings (6 per experiment) were treated with 0.1% DMSO (vehicle control/VC) or with 10 μM of Compound 4, Compound 12, Compound 15 or Compound 20. Sprouts from the perimeter of the aortic ring were counted and quantified as percentage of vehicle control (VC).

Assay [11] concerns PARP1. Kind of assay: qPCR DNA repair gene expression in OE33R: PARP1. The format is cell-based, human. The following applies: 10 μM, 24 hours. The procedure:
as §1

Assay [12] concerns PARP1. Nature of the assay: qPCR DNA repair gene expression in OE33P: PARP1. The format is cell-based, human. The following applies: 10 μM, 24 hours. The procedure: as §1
In assay [13] the test system is SMUG1. Kind of assay: qPCR DNA repair gene expression in OE33P: SMUG1. The following applies: 10 μM, 24 hours. The class given is cell-based, human. How it is done:
as §1

“Also recorded” adds a separate entry of the source.

On to `Cl.Oc1ccccc1/C=C/c1cnccn1` [Compound 4, (E)-2-[2-(Pyrazin-2-yl)vinyl]phenol hydrochloride], for which the “expression of MMS19 (qPCR)” value in assay [1] is on record as “not significantly different to control”. In addition, the “oxygen consumption rate (OCR), a measure of oxidative phosphorylation” value in [2] is “does significantly reduce OCR”; in assay [5], “does not significantly reduce oxygen consumption rate”. In addition, the “extracellular acidification rate (ECAR), a measure of glycolysis” value in [3], in [7] and in assay [9] was “does not significantly reduce extraceullar acidification rate” throughout. The “expression of MLH1 (qPCR)” value is recorded as “significantly reduces” in [4] and “not significantly different to control” in [8]. Further, the “expression of SMUG1 (qPCR)” value in assay [6] and in assay [13] was “not significantly different to control” throughout. Moreover, the “angiogenesis (sprout formation) in aortic rings” value in assay [10] is “block angiogenesis (sprout formation); also recorded: inhibit the formation of sprouts in a statistically significant manner”. In addition, the “expression of PARP1 (qPCR)” value in assay [11] and in assay [12] was “not significantly different to control” throughout.
